In experiment [1] the test system is EPO binding to D11. Kind of experiment: EPO binding activity after metal catalyzed oxidation (Fe-EDTA, H2O2, ascorbate). More on the design: species or system human. Conditions: 5 mM ferulic acid; EPO 336 μg/mL in HBS pH 7.0; 0.2 mM Fe-EDTA, 0.3% H2O2, 1 mM ascorbate, 2 hours 37° C. How it is done:
The binding activity of therapeutic protein to a ligand (e.g. to an antibody or binding partner, or, in cases where the therapeutic was an antibody, binding activity to the specific target antigen or to protein A) was determined as follows. Carboxymethyl-dextran chains on a CM5 gold sensor chip were activated with 1-ethyl-3-(3-dimethylaminopropyl)-carbodiimide HCl (EDC) and N-hydroxysuccinimide (NETS) at a flow rate of 5 μL/min. The therapeutic protein-binding ligand of interest was injected until the desired immobilization level was achieved (above 5000 response units). Three different therapeutic protein-binding ligands were measured—Antibody A's target antigen, Protein A, and D11 (an antibody that binds to erythropoietin). For introduction of Antibody A's target antigen to the column, an 80 μg injection of the antigen, diluted in 10 mM Na Acetate pH 4.0 was introduced; for Protein A, a 4 μg injection of Protein A, diluted in 10 mM Na Acetate pH 4.5, was introduced; for D11, a […] injection of D11, diluted in 10 mM Na Acetate pH 5.0 was introduced. The remaining activated groups were blocked with 1.0 M ethanolamine-HCl, pH 8.5.
A standard curve was prepared by using native forms of the therapeutic protein of interest. […]

Experiment [2] deals with EPO binding to D11. The experiment is described as follows: Binding of EPO to D11 monoclonal antibody after UV-B exposure of the formulation. Also noted: species or system human. As for the experimental part:
For the examples below involving exposure to UVB radiation, each sample was exposed to UVB light (λ≈302 nm) for varying times, using a UVP 8W model UVLMS-38 lamp at 4° C. The formulations were then analyzed using size exclusion chromatography high pressure liquid chromatography (SEC-HPLC). Aggregation (measured via SEC-HPLC analysis) and binding (measured using CM5 gold sensor chips) were measured to determine the effect of the antioxidant on aggregation and bioactivity of the therapeutic protein. The binding activity of therapeutic protein to a ligand (e.g. to an antibody or binding partner, or, in cases where the therapeutic was an antibody, binding activity to the specific target antigen or to protein A) was determined as follows. […] The therapeutic protein-binding ligand of interest was injected until the desired immobilization level was achieved (above 5000 response units). Three different therapeutic protein-binding ligands were measured—Antibody A's target antigen, Protein A, and D11 (an antibody that binds to erythropoietin). […] The remaining activated groups were blocked with 1.0 M ethanolamine-HCl, pH 8.5. A standard curve was prepared by using native forms of the therapeutic protein of interest. Native forms of the therapeutic protein were diluted in HBS-EP buffer (pH 7.4) to concentrations between 1 and 5 μg/mL, and then injected on the column, prepared as described above to obtain a standard curve. At the end of each sample run, regeneration buffer was used to wash away any bound therapeutic protein in preparation for subsequent injections. Various UV-stressed antibody formulations were also diluted in HBS-EP buffer (pH 7.4) to a concentration within the standard curve region, and injected to quantitate the loss of bioactivity to its respective ligand-binding partner. […] The protein was exposed to the same conditions as Antibody A and Antibody B for up to 24 hours.

Structures are written as SMILES.

For `COc1cc(/C=C/C(=O)O)ccc1O` [ferulic acid], the “EPO binding activity preserved” value in the experiment on EPO binding to D11 [1] is on record as 100%. In addition, the “EPO binding activity to D11 during UV-B exposure” value with EPO binding to D11 [2] (0.1 mM antioxidant, UV-B up to 24 hours) was “able to protect the EPO from degradation and preserve its binding activity”. Besides, in the experiment with EPO binding to D11 [2] (20 mM antioxidant, up to 24 hours UV), the “binding of EPO to D11 mAb after UV light exposure” value was “able to significantly preserve”.

(Values after patent publication US12440567B2, “Aqueous antibody formulation stabilized by antioxidants for parenteral administration” (AMGEN INC., priority 2007, dated 2025).)
